# Results: patent publication US5686454A, “Camphorcarbonyl” (Merck & Co., Inc., priority 1996, dated 1997)
# Target: T1, uterine OT receptors (Rattus norvegicus, UniProt P70536)
# T1 construct: crude membrane preparation of uteri; from tissue; host or cells: uterus of DES-treated rats, crude membranes
# T1 sequence (P70536 1-388): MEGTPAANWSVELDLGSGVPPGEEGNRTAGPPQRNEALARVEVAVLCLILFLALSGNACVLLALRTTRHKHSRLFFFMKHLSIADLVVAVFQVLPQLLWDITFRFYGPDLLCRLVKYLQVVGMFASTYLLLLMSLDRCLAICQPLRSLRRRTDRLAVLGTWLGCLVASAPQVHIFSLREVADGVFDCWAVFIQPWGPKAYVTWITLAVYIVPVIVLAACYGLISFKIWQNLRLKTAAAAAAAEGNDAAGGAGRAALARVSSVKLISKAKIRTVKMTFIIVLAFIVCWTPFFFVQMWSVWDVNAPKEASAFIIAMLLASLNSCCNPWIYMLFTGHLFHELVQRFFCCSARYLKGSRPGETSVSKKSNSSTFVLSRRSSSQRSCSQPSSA
# Assay: Radioligand binding: competition of [^3 H]oxytocin binding to rat uterine membranes
# Conditions: 1 nM [^3 H]OT, rat uterus membranes, 60 minutes, 22° C., pH 7.4; read-out: IC50
# From the text: RADIOGLIGAND BINDING ASSAYS
# The high affinity binding of [^3 H]
row,IC50 [nM],SMILES
1,110,"Cc1ccccc1N1CCN(S(=O)(=O)CC23CCC(CC2N(C)C(=O)[C@H](CCS(C)(=O)=O)N(C)C)C3(C)C)CC1 (stereo partly drawn) [Example 78, 1-((7,7-Dimethyl-2-endo-methyl(2S-dimethylamino-4-(methylsulfonyl)butanoyl)amino-bicyclo(2.2.1)heptan-1-yl)methanesulfonyl)-4-(2-methylphenyl)-piperazine]"
2,25,COC(=O)CCN1CCCC(C(=O)NCC(C)C2(O)CC3CCC2(CS(=O)(=O)N2CCN(c4ccccc4C)CC2)C3(C)C)C1 (stereo not shown) [Example 84]
3,260,"COC(=O)C1CC2CCC1(CS(=O)(=O)N1CCN(c3ccccc3C)CC1)C2(C)C (stereo not drawn) [Example 59, 1-((7,7-Dimethyl-2-endo-methoxycarbonyl-bicyclo-(2.2.1)heptan-1-yl)methanesulfonyl)-4-(2-methyl-phenyl)piperazine]"
4,6.3,"Cc1ccccc1N1CCN(S(=O)(=O)CC23CCC(CC2N(C)C(=O)OCc2ccccc2)C3(C)C)CC1 (stereo not drawn) [Example 76, 1-((7,7-Dimethyl-2-endo-methyl(benzyloxy-carbonyl)amino-bicyclo(2.2.1)-heptan-1-yl)methanesulfonyl)4-(2-methylphenyl)piperazine]"
5,120,"Cc1ccccc1N1CCN(C(=O)C2C3CCC(C)(C2NC(=O)C(O)CO)C3(C)C)CC1 (stereo not shown) [Example 18, 1-(2-methylphenyl)-4-[(4,7,7-trimethyl-3-(2,3-dihydroxy)propionylaminobicyclo[2.2.1]hept-2-yl)carbonyl]-piperazine]"
6,28,"CCOC(=O)CN1CCC[C@H]1C(=O)NCC(C)C1(O)CC2CCC1(CS(=O)(=O)N1CCN(c3ccccc3C)CC1)C2(C)C (stereo partly drawn) [Example 88, 1-((7,7-Dimethyl-2-exo-hydroxy-2-endo-2-(1-(1-N -(ethoxycarboxymethyl)-prolyl)amino)propyl-bicyclo-(2.2.1)heptan-1-yl)methanesulfonyl)-4-(2-methylphenyl)piperazine]"

row,SMILES,IC50 [nM]
1,"Cc1ccccc1N1CCN(C(=O)C2C3CCC(C)(C2NC(=O)C(CCS(C)(=O)=O)NC(=O)OC(C)(C)C)C3(C)C)CC1 (stereo not drawn) [Example 9, 1-(2-methylphenyl)-4-[(4,7,7-trimethyl-3-exo-(4-methylsulfonyl-2-t-butoxycarbonylamino)butanoylaminobicyclo[2.2.1]hept-2-endo-yl)carbonyl]-piperazine]",6.5

# Same assay, conditions: read-out: % inhibition at 100 nM
row,inhibition at 0.1 µM [%],SMILES
1,34,"Cc1ccccc1N1CCN(S(=O)(=O)CC23CCC(CC2C(=O)O)C3(C)C)CC1 (stereo not drawn) [Example 60, 1-((7,7-Dimethyl-2-endo-carboxy-bicyclo(2.2.1)heptan-1-yl)methanesulfonyl)-4-(2-methylphenyl)piperazine]"
2,36,"Cc1ccccc1N1CCN(S(=O)(=O)C[C@]23CC[C@H](CC2=CCN)C3(C)C)CC1 [Example 52, 1-((7,7-dimethyl-2-(2-amino)ethylidine-bicyclo-(2.2.1)heptan-1-yl)methanesulfonyl)-4-(2-methyl-phenyl)piperazine]"

# Same assay, conditions: read-out: % inhibition at 1000 nM
row,inhibition at 1 µM [%],SMILES
1,35,"Cc1ccccc1N1CCN(S(=O)(=O)CC23CCC(CC2NC(=O)OCc2ccccc2)C3(C)C)CC1 (stereo not drawn) [Example 75, 1-((7,7-Dimethyl-2-endo-benzyloxycarbonylamino-bicyclo(2.2.1)heptan-1-yl)methanesulfonyl)-4-(2-methyl-phenyl)-piperazine]"
2,38,"COC(=O)C1=C[C@H]2CC[C@]1(CS(=O)(=O)N1CCN(c3ccccc3C)CC1)C2(C)C [Example 56, 1-((7,7-Dimethyl-2-methoxycarbonyl-bicyclo(2.2.1)hept-2-en-1-yl)methanesulfonyl)-4-(2-methylphenyl)-piperazine]"
3,53,"Cc1ccccc1N1CCN(C(=O)C2(CC(=O)O)C(=O)C3(C)CCC2C3(C)C)CC1 (stereo not shown) [Example 4, 1-(2-methylphenyl)-4-[(4,7,7-trimethyl-3-oxo-2-carboxymethyl-bicyclo[2.2.1]hept-2-yl)carbonyl]-piperazine]"

# Same assay, conditions: read-out: % inhibition at 10,000 nM
row,inhibition at 10 µM [%],SMILES
1,5,"Cc1ccccc1N1CCN(S(=O)(=O)CC23CCC(CC2=O)C3(C)C)CC1=O (stereo not shown) [Example 66, 1-((7,7-Dimethyl-2-oxo-bicyclo(2.2.1)heptan-1-yl)methanesulfonyl)-4-(2-methylphenyl)-3-piperazinone]"
